From patent US7998965B2, “Glutamate aggrecanase inhibitors” (Wyeth LLC, priority 2005, dated 2011)
Where two headings read alike, the source gives them in different places.

Experiments:
[1] = molecular target: T1, purified recombinant human Aggrecanase-1 (rAgg1) (Homo sapiens, UniProt O75173); assay: In vitro fluorescence screen for Aggrecanase-1 inhibitors; assay type: biochemical; conditions: for IC50: read-out: Agg1 IC50; for Ki: read-out: Ki Agg1
T1 sequence (O75173 213-837): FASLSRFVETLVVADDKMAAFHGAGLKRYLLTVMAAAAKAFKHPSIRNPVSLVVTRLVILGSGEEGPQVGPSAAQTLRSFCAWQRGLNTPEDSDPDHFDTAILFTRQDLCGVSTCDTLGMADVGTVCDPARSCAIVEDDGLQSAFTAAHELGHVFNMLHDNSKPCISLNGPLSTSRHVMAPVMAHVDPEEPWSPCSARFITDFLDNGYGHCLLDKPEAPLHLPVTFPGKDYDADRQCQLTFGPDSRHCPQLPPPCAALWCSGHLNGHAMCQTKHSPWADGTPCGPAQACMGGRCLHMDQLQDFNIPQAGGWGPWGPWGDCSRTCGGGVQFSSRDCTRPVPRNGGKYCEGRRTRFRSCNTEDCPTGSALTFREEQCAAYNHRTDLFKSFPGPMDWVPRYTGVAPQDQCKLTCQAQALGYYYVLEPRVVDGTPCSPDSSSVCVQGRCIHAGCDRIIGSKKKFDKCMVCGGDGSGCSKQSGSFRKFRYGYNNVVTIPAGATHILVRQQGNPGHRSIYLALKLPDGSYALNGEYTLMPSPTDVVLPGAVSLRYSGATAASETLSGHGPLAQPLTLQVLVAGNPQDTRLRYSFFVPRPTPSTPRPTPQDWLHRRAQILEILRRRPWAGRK

[2] = molecular target: T2, purified recombinant human Aggrecanase-2 (Ag2t-Phe628-Strep) (Homo sapiens, UniProt Q9UNA0); assay: In vitro fluorescence screen for Aggrecanase-2 inhibitors; assay type: biochemical; conditions: for IC50: read-out: Agg 2 IC50; for Ki: read-out: Ki Agg2
T2 construct: the form used is denoted as Ag2t-Phe628-Strep (MW=41,737)
T2 sequence (Q9UNA0 262-628): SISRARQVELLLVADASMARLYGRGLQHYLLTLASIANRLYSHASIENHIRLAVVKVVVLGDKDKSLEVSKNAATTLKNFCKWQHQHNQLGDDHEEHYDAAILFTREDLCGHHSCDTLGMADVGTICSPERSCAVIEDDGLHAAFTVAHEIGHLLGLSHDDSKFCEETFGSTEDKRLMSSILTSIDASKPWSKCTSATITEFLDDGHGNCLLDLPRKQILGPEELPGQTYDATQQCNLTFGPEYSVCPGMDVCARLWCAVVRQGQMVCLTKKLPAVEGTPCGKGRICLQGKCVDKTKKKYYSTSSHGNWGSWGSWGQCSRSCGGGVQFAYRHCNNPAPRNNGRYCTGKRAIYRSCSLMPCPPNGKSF

C[C@H](NC(=O)[C@H](CCC(=O)O)NC(=O)c1ccc(-c2ccccc2)cc1)c1ccc(F)cc1 [Example 8RRRRR, N^2-(biphenyl-4-ylcarbonyl)-N1-[(1S)-1-(4-fluorophenyl)ethyl]-L-α-glutamine]
IC50 ([1]; Table 2): 129 nM
IC50 ([2]; Table 2): 2900 nM

CC(C)(Cc1ccc(F)cc1)NC(=O)[C@H](CCC(=O)O)NC(=O)c1ccc(-c2ccc3c(c2)CCO3)cc1 [Example 8RRRRRRR, N^2-[4-(2,3-dihydro-1-benzofuran-5-yl)benzoyl]-N-[2-(4-fluorophenyl)-1,1-dimethylethyl]-L-α-glutamine]
IC50 ([1]; Table 3): 70 to 210 nM
inhibition at 1.2 µM ([2]; read-out: Agg 2 % at concentration): 48%

CC(NC(=O)[C@H](CCC(=O)OC(C)(C)C)NC(=O)c1ccc(-c2ccccc2)cc1)c1ccccc1 (stereo partly drawn) [Example 8SSSSS, tert-butyl N^2-(biphenyl-4-ylcarbonyl)-N^1-(1-Phenylethyl)-L-α-glutaminate]
IC50 ([1]; Table 2): 208 nM
IC50 ([2]; Table 2): 2470 nM

CC(C)(Cc1ccc(F)cc1)NC(=O)[C@H](CCC(=O)O)NC(=O)c1ccc(-c2ccc(F)c(Cl)c2)cc1 [Example 8SSSSSSS, N^2-[(3′-chloro-4′-fluorobiphenyl-4-yl)carbonyl]-N-[2-(4-fluorophenyl)-1,1-dimethylethyl]-L-α-glutamine]
IC50 ([1]; Table 3): 57 nM
Ki ([1]; Table 3): 22 nM
IC50 ([2]; Table 3): 230 nM
Ki ([2]; Table 3): 356 nM

O=C(O)CC[C@H](NC(=O)c1ccc(Oc2ccccc2)cc1)C(=O)NCCCCCCO [Example 8TTTT, N^1-(6-hydroxyhexyl)-N^2-(4-phenoxybenzoyl)-L-α-glutamine]
IC50 ([1]; Table 2): > 17000 nM
IC50 ([2]; Table 2): > 22000 nM

C[C@@H](NC(=O)[C@H](CCC(=O)O)NC(=O)c1ccc(-c2ccccc2)cc1)c1ccc(F)cc1 [Example 8TTTTT, N^2-(biphenyl-4-ylcarbonyl)-N^1-[(1R)-1-(4-fluorophenyl)ethyl]-L-α-glutamine]
IC50 ([1]; Table 2): 389 nM
IC50 ([2]; Table 2): 2010 nM

Cc1cccc(CNC(=O)[C@H](CCC(=O)O)NC(=O)c2ccc(-c3cccc(CBr)c3)cc2)c1 [Example 8TTTTTTT, N^2-{[3′-(bromomethyl)biphenyl-4-yl]carbonyl}-N-(3-methylbenzyl)-L-α-glutamine]
IC50 ([1]; Table 3): 707 nM
inhibition at 11 µM ([2]; Table 3, at 11000 (nM), read-out: Agg 2 % at concentration): 20%

O=C(O)CC[C@H](NC(=O)C1c2ccccc2-c2ccccc21)C(=O)NCCCCCCO [Example 8UUUU, N^2-(9H-fluoren-9-ylcarbonyl)-N^1-(6-hydroxyhexyl)-L-α-glutamine]
IC50 ([1]; Table 2): > 17000 nM
IC50 ([2]; Table 2): ~67000 nM

C[C@@H](NC(=O)[C@H](CCC(=O)O)NC(=O)c1ccc(-c2ccccc2)cc1)c1ccccc1 [Example 8UUUUU, N^2-(biphenyl-4-ylcarbonyl)-N^1-[(1R)-1-phenylethyl]-L-α-glutamine]
IC50 ([1]; Table 2): 317 nM
IC50 ([2]; Table 2): 2120 nM

COc1cc(CNC(=O)[C@H](CCC(=O)O)NC(=O)C2c3ccccc3-c3ccccc32)cc(OC)c1OC [Example 8VVVV, N^2-(9H-fluoren-9-ylcarbonyl)-N^1-(3,4,5-trimethoxybenzyl)-L-α-glutamine]
IC50 ([1]; Table 2): > 17000 nM
IC50 ([2]; Table 2): > 67000 nM

C[C@@H](NC(=O)[C@H](CCC(=O)O)NC(=O)c1ccc2c(c1)Cc1ccccc1-2)c1ccccc1 [Example 8VVVVV, N^2-(9H-fluoren-2-ylcarbonyl)-N^1-[(1R)-1-phenylethyl]-L-α-glutamine]
IC50 ([1]; Table 2): 221 nM
IC50 ([2]; Table 2): 1560 nM

COc1cc(CNC(=O)[C@H](CCC(=O)O)NC(=O)c2cccc(Oc3ccccc3)c2)cc(OC)c1OC [Example 8WWWW, N^2-(3-phenoxybenzoyl)-N^1-(3,4,5-trimethoxybenzyl)-L-α-glutamine]
IC50 ([1]; Table 2): 8300 nM
IC50 ([2]; Table 2): > 67000 nM

O=C(O)CC[C@H](NC(=O)c1cccc2c1Cc1ccccc1-2)C(=O)NCCCCCCO [Example 8WWWWW, N^2-(9H-fluoren-1-ylcarbonyl)-N^1-(6-hydroxyhexyl)-L-α-glutamine]
IC50 ([1]; Table 2): > 17000 nM
IC50 ([2]; Table 2): > 67000 nM

COc1cc(CNC(=O)[C@H](CCC(=O)O)NC(=O)c2cccc3c2-c2ccccc2C3)cc(OC)c1OC [Example 8XXXX, N^2-(9H-fluoren-4-ylcarbonyl)-N^1-(3,4,5-trimethoxybenzyl)-L-α-glutamine]
IC50 ([1]; Table 2): > 50000 nM
IC50 ([2]; Table 2): > 200000 nM

O=C(O)CC[C@H](NC(=O)c1ccc2c(c1)C(=O)c1ccccc1-2)C(=O)NCCCCCCO [Example 8XXXXX, N^1-(6-hydroxyhexyl)-N^2-[(9-oxo-9H-fluoren-2-yl)carbonyl]-L-α-glutamine]
IC50 ([1]; Table 2): 246 nM
IC50 ([2]; Table 2): 1450 nM

CC(C)(Cc1ccc(Cl)cc1)NC(=O)[C@H](CCC(=O)O)NC(=O)c1ccc(-c2cccs2)cc1 [Example 8XXXXXXX, N-[2-(4-chlorophenyl)-1,1-dimethylethyl]-N^2-[4-(2-thienyl)benzoyl]-L-α-glutamine]
IC50 ([1]; Table 3): < 30 nM
Ki ([1]; Table 3): 4.5 nM
IC50 ([2]; Table 3): 20 to 70 nM
Ki ([2]; Table 3): 56 nM

CC(C)(Cc1ccc(Cl)cc1)NC(=O)[C@H](CCC(=O)O)NC(=O)c1ccc(-c2ccccc2)nc1 [Example 8XXXXXXXX, N-[2-(4-chlorophenyl)-1,1-dimethylethyl]-N^2-[(6-phenylpyridin-3-yl)carbonyl]-L-α-glutamine]
IC50 ([1]; Table 3): 100 nM
IC50 ([2]; Table 3): 1700 nM

O=C(O)CC[C@H](NC(=O)c1ccc(-c2ccccc2)cc1)C(=O)NCCc1cccc(Cl)c1 [Example 8YY, N^2-(1,1′-biphenyl-4-ylcarbonyl)-N^1-[2-(3-chlorophenyl)ethyl]-L-α-glutamine]
IC50 ([1]; Table 1): 530 nM
IC50 ([2]; Table 1): 4500 nM

O=C(O)CC[C@H](NC(=O)c1ccc2c(c1)C(=O)c1ccccc1-2)C(=O)NC12CC3CC(CC(C3)C1)C2 [Example 8YYYY, N^1-1-adamantyl-N^2-[(9-oxo-9H-fluoren-2-yl)carbonyl]-L-α-glutamine]
IC50 ([1]; Table 2): 1500 nM
IC50 ([2]; Table 2): > 200000 nM

COc1cccc(-c2ccc(C(=O)N[C@@H](CCC(=O)O)C(=O)NC(C)(C)Cc3ccc(Cl)cc3)s2)c1 [Example 8YYYYYYY, N-[2-(4-chlorophenyl)-1,1-dimethylethyl]-N^2-{[5-(3-methoxyphenyl)-2-thienyl]carbonyl}-L-α-glutamine]
IC50 ([1]; Table 3): < 30 nM
Ki ([1]; Table 3): 27 nM
IC50 ([2]; Table 3): 200 to 600 nM
Ki ([2]; Table 3): 197 nM

O=C(O)CC[C@H](NC(=O)c1ccc(Oc2ccccc2)cc1)C(=O)NC12CC3CC(CC(C3)C1)C2 [Example 8ZZZZ, N^1-1-adamantyl-N^2-(4-phenoxybenzoyl)-L-α-glutamine]
IC50 ([1]; Table 2): > 17000 nM
IC50 ([2]; Table 2): > 22000 nM

CC(C)(Cc1ccc(Cl)cc1)NC(=O)[C@H](CCC(=O)O)NC(=O)c1ccc(-c2ccc(F)c(F)c2)cc1 [Example 8ZZZZZZ, N-[2-(4-chlorophenyl)-1,1-dimethylethyl]-N^2-[(3′,4′-difluorobiphenyl-4-yl)carbonyl]-L-α-glutamine]
IC50 ([1]; Table 3): < 30 nM
IC50 ([2]; Table 3): 120 nM

CC(C)(Cc1ccc(Cl)cc1)NC(=O)[C@H](CCC(=O)O)NC(=O)c1ccc(-c2ccccc2)s1 [Example 8ZZZZZZZ, N-[2-(4-chlorophenyl)-1,1-dimethylethyl]-N^2-[(5-phenyl-2-thienyl)carbonyl]-L-α-glutamine]
IC50 ([1]; Table 3): < 30 nM
Ki ([1]; Table 3): 12.7 nM
IC50 ([2]; Table 3): 200 to 600 nM
Ki ([2]; Table 3): 290 nM

CC(C)(Cc1ccc(F)cc1)NC(=O)[C@H](CCC(=O)O)NC(=O)c1ccc(-c2cccnc2)s1 [Example 8ZZZZZZZZ, N-[2-(4-fluorophenyl)-1,1-dimethylethyl]-N^2-[(5-pyridin-3-yl-2-thienyl)carbonyl]-L-α-glutamine]
IC50 ([1]; Table 3): 20 to 70 nM
IC50 ([2]; Table 3): 9900 nM

O=C(O)CC[C@H](NC(=O)c1ccc(-c2ccccc2)cc1)C(=O)NCCc1ccc(-c2ccc(C(F)(F)F)cc2)cc1 [Example 10A, N^2-(biphenyl-4-ylcarbonyl)-N^1-{2-[4′-(trifluoromethyl)biphenyl-4-yl]ethyl}-L-α-glutamine]
IC50 ([1]; Table 1): 840 nM
IC50 ([2]; Table 1): 2100 nM

O=C(O)CC[C@H](NC(=O)c1ccc(-c2ccccc2)cc1)C(=O)NCCc1ccc(-c2ccccc2)cc1 [Example 10C, N^2-(biphenyl-4-ylcarbonyl)-N^1-(2-biphenyl-4-ylethyl)-L-α-glutamine]
IC50 ([1]; Table 1): 240 nM
IC50 ([2]; Table 1): > 5000 nM

O=C(O)CC[C@H](NC(=O)c1ccc(-c2ccccc2)cc1)C(=O)NCCc1ccc(-c2cccs2)cc1 [Example 10D, N^2-(biphenyl-4-ylcarbonyl)-N^1-{2-[4-(2-thienyl)phenyl]ethyl}-L-α-glutamine]
IC50 ([1]; Table 1): 480 nM
IC50 ([2]; Table 1): 3200 nM
